We go through 1 compound from publication PMC9917099, “The Mycotoxin Patulin Inhibits the Mitochondrial Carnitine/Acylcarnitine Carrier (SLC25A20) by Interaction with Cys136 Implications for Human Health” (International Journal of Molecular Sciences, 2023).

“And” between values parts separate entries of the source, which are not always exact repeats. Equal values may be shown once.

In one series the target is T1, rat CAC mutant C155S (Rattus norvegicus, UniProt P97521, C155S).
T1 construct: made in house; host or cells: E. coli C0214 (pMW7, inclusion bodies)
T1 sequence (P97521 1-301 C155S): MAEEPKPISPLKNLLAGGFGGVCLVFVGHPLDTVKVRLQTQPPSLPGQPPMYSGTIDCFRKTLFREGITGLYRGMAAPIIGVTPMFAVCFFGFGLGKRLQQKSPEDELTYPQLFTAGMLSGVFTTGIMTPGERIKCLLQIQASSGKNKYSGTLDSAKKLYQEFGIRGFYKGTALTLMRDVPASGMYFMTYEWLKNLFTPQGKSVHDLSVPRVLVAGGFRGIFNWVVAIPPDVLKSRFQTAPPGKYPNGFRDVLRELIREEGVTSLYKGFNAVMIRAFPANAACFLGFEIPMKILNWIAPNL
Put plainly: Carnitine antiport in proteoliposomes, CAC mutant C155S. The series is classed as biochemical. On the procedure: (§1) To shed light on the interaction between PAT and CAC and verify if specific Cys residues were involved, transport experiments on the recombinant rat and human WT CAC and CAC’s rat Cys mutants were performed. As in the case of the native protein, transport activities were measured as [^3H]-carnitine/carnitine antiport in proteoliposomes. […] The PAT inhibition of the WT recombinant protein was only slightly greater compared to the native protein, although compounds and other molecular systems that affect the mycotoxin binding to the native CAC were absent (see above). For identifying the residues involved in the PAT interaction, site-directed Cys mutants were tested for inhibition (Figure 2). […]
(§2) Figure 2 Dose-response analysis of the PAT inhibition of the CAC recombinant proteins. […] The data are expressed as a percentage of the controls (no PAT addition) and are means ± SD of three independent experiments. […]
(§3) For the transport assay, 550 μL of proteoliposomes were passed through a Sephadex G-75 column in order to remove the external substrate. […] After finishing the transport reaction, the external radiolabel substrate was removed by gel filtration chromatography (Sephadex G-75), and the intraliposomal radioactivity was measured by liquid scintillation. Transport was measured at 25 °C. […] Transport rates were measured in 10 min, i.e., within the initial linear range of the time course.

A short description of series [1]: Stability of PAT solution stored at room temperature, read out as inhibition of recombinant WT CAC transport. The series is classed as physicochemical. The following applies: 25 and 50 µM PAT, stored at r.t., 24 and 72 h. The source says: Figure 3A reports the interaction of PAT with the reconstituted WT protein. The inhibition observed after the pretreatment of proteoliposomes with the mycotoxin was not reversed by DTE, confirming the formation of an irreversible covalent bond between CAC and PAT also with the purified recombinant protein (see above Figure 1B). For evaluating the stability of the drug following prolonged storage, we measured the inhibition of the transport activity of WT adding to the samples, at various time, the same PAT solution stored at room temperature (r.t.).
Figure 3 (A) Reversal of PAT inhibition on recombinant protein by DTE. The carnitine homo-exchange transport activity was measured, as described in Materials and Methods, adding 0.1 mM [^3H] carnitine to proteoliposomes reconstituted with the recombinant WT CAC containing 15 mM internal carnitine in the absence or presence of 50 μM PAT, added 30 min before the labelled substrate. 5 mM dithioerythritol (DTE) was added 1 min before the transport assay in a control and PAT treated aliquot, respectively. […] Proteoliposomes reconstituted with the WT CAC were incubated by the same PAT solution (25 and 50 µM) after 0.5 h, 24 h and 72 h (white, grey and black bars, respectively) and then the transport activity was measured by adding 0.1 mM [^3H]-carnitine and stopped after 30 min as described in Materials and Methods.

In another series the target is T2, recombinant human WT CAC (Homo sapiens, UniProt O43772).
T2 construct: made in house; host or cells: E. coli C0214 (pMW7, inclusion bodies)
T2 sequence (O43772 1-301): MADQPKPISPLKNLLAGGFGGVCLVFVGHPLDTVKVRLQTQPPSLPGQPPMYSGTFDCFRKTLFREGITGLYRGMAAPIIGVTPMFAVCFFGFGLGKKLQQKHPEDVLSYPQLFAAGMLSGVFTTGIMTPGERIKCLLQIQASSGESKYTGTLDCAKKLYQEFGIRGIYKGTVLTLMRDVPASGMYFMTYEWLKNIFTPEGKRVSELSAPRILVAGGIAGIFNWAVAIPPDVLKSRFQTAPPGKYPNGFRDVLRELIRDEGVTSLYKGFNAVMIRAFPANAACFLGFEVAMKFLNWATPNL
Briefly: [3H]-carnitine/carnitine antiport in proteoliposomes with recombinant human WT CAC. It is filed as biochemical. The note with it: PAT 30 min, read-out: IC50 of CAC WT inhibition. How it is done: as §1, §2, §3

For `O=C1C=C2C(=CCOC2O)O1` (stereo not drawn) [PAT, 4-hydroxy-4H-furo [3,2c] pyran-2 [6H] -one], the half-inhibitory concentration (IC50) (usually the midpoint of a concentration-inhibition curve) against rat CAC mutant C155S was “comparable to the WT”; on recombinant human WT CAC it was 50 µM and ~50 µM. Also, the “reactivity towards CAC of stored PAT solution” value in series [1] is listed as “does not change”.
